According to patent US10189803B2, “Synthesis of therapeutic and diagnostic drugs centered on regioselective and stereoselective ring opening of aziridinium ions” (ILLINOIS INSTITUTE OF TECHNOLOGY, priority 2008, dated 2019):
“Also recorded” adds a separate entry of the source.

What was measured:
[1] = test system: HT29 cells; assay: Antiproliferative activity, MTS assay, HT29 cells; format: cell-based, Human; details: 72 h incubation
Experimental: Cell culture Human cervix HeLa cell line was obtained from ATCC (Rockville, Md.) and cultured in minimum essential medium (MEM) with L-glutamine (2 mM), Earle's BSS and sodium bicarbonate (1.5 g/L), supplemented with 10% fetal bovine serum (FBS), non-essential amino acids (0.1 mM), sodium pyruvate (1 mM) and antibiotic/antimycotic solution in a humidified atmosphere with 5% CO2 at 37° C. […] Lung fibroblast MRC-5 cell line was obtained from ATCC (Rockville, Md.) and cultured in ATCC formulated EMEM, supplemented with 10% fetal bovine serum (FBS) in a humidified atmosphere with 5% CO2 at 37° C.
(§1) Antiproliferative Activity. Cells were seeded onto 96-well plate at density of 2,000 cells for Hela cells or 5,000 cells for HT29 cells or 5,000 cells for MRC-5 per well in 0.1 mL complete medium and allowed to attach for 24 h. Varying concentrations of the test compounds in the final volume of 0.1 mL complete medium were then added in at least five series dilutions and incubated for 72 h. To measure cell proliferation, the Cell Titer 96 aqueous nonreactive cell proliferation assay (Promega Life Sciences, Madison, Wis.) was used according to the manufacturer's instructions. Briefly, MTS (2 mg/mL) and PMS (0.92 mg/ml) were mixed in a ratio of 20:1. An aliquot (20 μL) of the MTS/PMS mixture was added into each well, and the plate was incubated for 3 h at 37° C. Optical absorbance at 490 nm was then recorded with an enzyme-linked immunosorbent assay (ELISA) microtiter plate reader (Biotek). Each experiment was done at least in triplicate. Antiproliferative activity of the test compounds was expressed as the fraction of optical densities of treated the cells relative to the untreated solvent controls.^31 The data were plotted in GraphPad Prizm 3.0. Nonlinear regression analysis was used to determine IC50 values.
Cell culture. Human cervix HeLa cell line was obtained from ATCC (Rockville, Md.) and cultured in minimum essential medium (MEM) with L-glutamine (2 mM), Earle's BSS and sodium bicarbonate (1.5 g/L), supplemented with 10% fetal bovine serum (FBS), non-essential amino acids (0.1 mM), sodium pyruvate (1 mM) and antibiotic/antimycotic solution in a humidified atmosphere with 5% CO2 at 37° C.
as §1, with “activity.” for “Activity.”, “cells” for “cells or 5,000 cells for MRC-5”, “controls.” for “controls.^31”

[2] = test system: Hela cells; assay: Iron saturation experiment, Hela cell growth (MTS); format: cell-based, Human
Experimental: Cytotoxicity of the new chelators was measured in the HeLa and HT29 cancer cells and compared to that of the clinically used iron chelators DFO and DTPA. […] The preliminary cell culture experiments were performed to see ifNETA is an effective cytotoxic agent. […] In order to investigate the effect of the chelators on the cellular growth, the Hela cancer cells saturated with Fe(III)-citrate (50 μM) were incubated with each of the chelators (50 μM).
Iron Saturation Experiment Hela Cells were inoculated onto 96-well plates at density of 2,000 per well in 0.1 mL complete medium and incubated for 24 h. […] Control samples containing no ferric citriate were also tested. […] After the incubation, cells proliferation rates were evaluated by MTS assay.

[3] = In vitro serum stability of radiolabeled C-NE3TA complexes in human serum (SE-HPLC); format: in vitro ADME
Experimental: C-NE3TA was radiolabeled with ^90Y, ^177Lu, ^203Pb, ^205/6Bi, or ^153Gd as previously described (Chong, H. S.; Milenic, D. E.; Garmestani, K.; Brady, E. D.; Arora, H.; Pfiester, C.; Brechbiel, M. W., Nucl. Med. Biol. 2006, 33, 459-67; Chong H S, Garmestani K, Bryant Jr., L H Milenic D E, Overstreet T, Birch N, Le N, Brady E D, Brechbiel M W. J. Med. Chem. 2006, 49, 2055-2062). In vitro serum stability of the radiolabeled complexes purified via ion-exchange chromatography was performed to determine if C-NE3TA labeled with the radioisotopes remained stable without transchelation or loss of their respective radionuclide in human serum. This was assessed by measuring the transfer of radionuclide from the complex to serum proteins over the course of 11 days.
In vitro stability of the radiolabeled metal complexes. The stability of the purified radiolabeled complexes was evaluated in human serum (Gemini Bioproducts, Woodland, Calif.) for up to 11 days. The serum stability of the radiolabeled complexes was assessed by measuring the transfer of the radionuclide from each complex to serum proteins using SE-HPLC methods. Radiolabeled complexes were diluted to an appropriate volume that allowed for preparation of multiple samples containing 5-10 μCi and were filter-sterilized using a Millex-GV 0.22 μm filter. This stock solution was then mixed with 1400 μL of sterile normal human serum. Aliquots (200 μL) were drawn and separated into individual tubes for subsequent analysis using aseptic technique. The samples were incubated at 37° C., and at designated intervals, subjected to analysis by SE-HPLC. Samples were loaded onto the HPLC and eluted with PBS, pH 7.4 isocratically at 1 mL/min. […] Radioactivity associated with a transfer to serum proteins generally appeared at ˜6 min.

[4] = In vitro serum stability of 205/6Bi-DEPA in human serum (SE-HPLC); format: in vitro ADME; set-up: Radiolabled Complex, in vitro serum stability (Table 1): unit not given here; details: for Radiolabled Complex, in vitro serum stability (Table 1): 37° C.
Experimental: The new ligand DEPA was radiolabeled with ^177Lu and ^205/6Bi (a surrogate of ^212Bi and ^213Bi) and the corresponding radiolabeled complexes were evaluated for in vitro serum stability as described previously. For comparison, DOTA was also radiolabeled with ^177Lu. DEPA and DOTA (0.25 M NH4OAc buffer, pH 4.0) was radiolabeled with ^177Lu at 45° C. for 0.5 h to afford ^177Lu-DEPA (Rf=0.6) and ^177Lu-DOTA (Rf=0.4) in the respective radiochemical yield of 90% and 95% as determined by radio-TLC. DEPA (0.25 M NH4OAc buffer, pH 5.0) was successfully radiolabeled with ^205/6Bi at room temperature for 1 h to afford ^205/6Bi-DEPA in 96% yield (radio-TLC). ^177Lu-DOTA, 177Lu-DEPA, and ^205/6Bi-DEPA formed were purified from unbound ^205/6Bi by ion-exchange chromatography using a Chelex-100 column (1 mL volume bed, 100-200 mesh, Na^+ form, Bio-Rad, Richmond, Calif.) eluted with PBS (pH 7.4). In vitro serum stability of the purified radiolabeled complexes was performed to determine if DEPA or DOTA radiolabeled with ^177Lu or ^205/6Bi remained stable without loss of the radionuclide in human serum. This was assessed by measuring the transfer of radionuclide from the complex to serum proteins. […] However, ˜10% of the radioactivity was released from ^177Lu-DOTA over 4 days.
In vitro serum stability of the radiolabeled metal complexes. An aliquot of 3.7 MBq of the purified ^177Lu-labeled ligands was added to 0.5 mL of mouse serum (Sigma, St. Louis, Mo.) and 0.1% NaN3. The resulting mixture was incubated at 37° C. for 96 h. Aliquots of 2 μL of the resulting mixture were analyzed by radio-TLC and HPLC at different time points, 0, 0.25, 0.5, 1, 2, 4, 6, 24, 48, and 96 h of incubation. The stability of purified ^205/6Bi-DEPA was evaluated in human serum (Gemini Bioproducts, Woodland, Calif.) for 14 days by measuring the transfer of the radionuclide from the complex to serum proteins as monitored by SE-HPLC. Radiolabeled complexes were diluted to an appropriate volume that allowed for preparation of multiple samples containing 5-10 μCi and filter-sterilized using a Millex-GV 0.22 μm filter. 140 μL of this stock solution was then mixed with 1400 μL of sterile normal human serum or saline. Aliquots (200 μL) were drawn and separated into individual tubes for subsequent analysis using aseptic technique. The samples were incubated at 37° C., and at designated intervals, subjected to analysis by SE-HPLC. Samples were loaded onto the HPLC and eluted with PBS, pH 7.4 isocratically at 1 mL/min. […] Radioactivity associated with a transfer to serum proteins generally appeared between ˜4.5-8 min.

[5] = Biodistribution of 205/6Bi-DEPA in normal athymic mice; format: in vivo
Experimental: Based on the promising data obtained from the AAIII based spectroscopic complexation kinetics and serum stability experiments, the stability of ^205/6Bi-DEPA was further evaluated by performing a biodistribution study in normal athymic mice as described previously. Blood levels and organ uptake of the radiolabeled complexes in mice were measured at five time points, 0.5, 1, 4, 8, and 24 h post-injection of ^205/6Bi-DEPA. […] Radioactivity that was detected in the blood and the organs was less than 2.44% ID/g at all points. At 24 h post injection, the % ID/g in the kidneys and spleen was 0.36±0.03% and 0.39±0.07%, respectively, which was slightly higher than that observed in other organs.

Structure (SMILES): O=C(O)CN1CCN(CCN(CC(=O)O)CC(=O)O)CCN(CC(=O)O)CC1 [NETA]
- IC50 [1]: 7.3 ± 1.5 µM
- anti-proliferative activity compared to DFO ([2]; 50 μM, HeLa): three-fold increased anti-proliferative activity compared to DFO
- effect on Hela cells saturated with Fe(III)-citrate (in words) ([2]; chelator 50 μM, Fe(III)-citrate 50 μM): almost no anti-proliferative activity
- HeLa cancer cells died ([2]; free ligand 50 μM, no ferric citrate): ~80%

Structure (SMILES): O=C(O)CNC(Cc1ccc([N+](=O)[O-])cc1)CN1CCN(CC(=O)O)CCN(CC(=O)O)CC1.[203Pb] (centres unmarked) [^203Pb-C-NE3TA]
- stability in human serum (in words) ([3]; 37° C., up to 11 days): no measurable loss of radioactivity
- radionuclide dissociated from the complex ([3]; in 1 day): ~40%

Structure (SMILES): O=C([O-])CN1CCN(CCN(CC(=O)[O-])CC(=O)[O-])CCN(CC(=O)[O-])CCN(CC(=O)[O-])CC1.[Bi+3] [^205/6Bi-DEPA]
- Radiolabled Complex, in vitro serum stability (Table 1) ([4]; 0 h): 100
- Radiolabled Complex, in vitro serum stability (Table 1) ([4]; 0.5 h): 100
- Radiolabled Complex, in vitro serum stability (Table 1) ([4]; 1 h): 100
- Radiolabled Complex, in vitro serum stability (Table 1) ([4]; 2 h): 100
- Radiolabled Complex, in vitro serum stability (Table 1) ([4]; 4 h): 100
- Radiolabled Complex, in vitro serum stability (Table 1) ([4]; 6 h): 100
- Radiolabled Complex, in vitro serum stability (Table 1) ([4]; 24 h): 100
- Radiolabled Complex, in vitro serum stability (Table 1) ([4]; 48 h): 100
- Radiolabled Complex, in vitro serum stability (Table 1) ([4]; 96 h): 100
- Radiolabled Complex, in vitro serum stability (Table 1) ([4]; 120 h): 100
- Radiolabled Complex, in vitro serum stability (Table 1) ([4]; 192 h): 100
- Radiolabled Complex, in vitro serum stability (Table 1) ([4]; 288 h): 100
- Radiolabled Complex, in vitro serum stability (Table 1) ([4]; 336 h): 100
- serum stability of 205/6Bi complex (in words) ([4]; 14 days): no radioactivity was released over 14 days; also recorded: very stable in human serum for 2 weeks
- bone accumulation of the radioactivity ([5]; 0.5 h): 2.02±0.96 % ID/gm
- bone accumulation of the radioactivity ([5]; 1 h): 0.38±0.09 % ID/gm
- % ID/g in the kidneys ([5]; 24 h post injection): 0.36±0.03 % ID/g
- % ID/g in the spleen ([5]; 24 h post injection): 0.39±0.07 % ID/g
- Radioactivity detected in the blood and the organs ([5]; all time points, 0.5-24 h post-injection): less than 2.44 % ID/g
- in vivo stability and clearance (in words) ([5]; normal athymic mice): essentially inert in vivo and rapidly cleared from the body
